Reference: patent publication US20200163854A1, “LIFE-EXTENDING AGENT, ANTI-AGING AGENT, COSMETIC, AND FOOD/BEVERAGE COMPOSITION” (KYOTO UNIVERSITY, priority 2017, published 2020)
Like-named read-outs stand apart in the source and are kept apart here.

Experiments:
[1] = system: Drosophila flies, premature aging strain (sod1[n1] mutants), male; conditions: vs control medium
Protocol: Mutants of adult Drosophila flies (male) containing Cu/Zn-SOD with reduced activity due to amino acid substitution (sod1[n1]) were bred in a plastic tube having a diameter of 25 mm, and fed with a simple medium (instant medium) for Drosophila that contains D-proline (D-Pro) at a concentration of 20, 60, 200, or 400 μg/ml, or L-proline (L-Pro) at a concentration of 400 μg/ml, followed by measuring the life span of the flies. […] For the control, a simple medium to which no D-Pro or L-Pro was added was used.
(§1) Mutants of adult Drosophila flies (male) containing Cu/Zn-SOD with reduced activity due to amino acid substitution (sod1[n1]) were bred in a plastic tube having a diameter of 25 mm, and fed with a simple medium (instant medium) for Drosophila that contains D-proline (D-Pro) at a concentration of 400 μg/ml, or D-aspartic acid (D-Asp) at a concentration of 60, 200, or 400 μg/ml, followed by measuring the life span of the flies. […] For the control, a simple medium to which no D-Pro or D-Asp was added was used.
as §1, with “D-hydroxyproline (D-HP)” for “D-aspartic acid (D-Asp)”, “D-HP” for “D-Asp”

[2] = system: spleen-derived mononuclear cells (T cells with senescence marker); conditions: 0.2 mg/ml in water, free intake, Day 495; compared to control group or L-proline group
Protocol: (§2) After euthanasia on Day 495, the spleen was removed and ground through a 0.45-μM strainer to prepare a suspension of spleen-derived cells (FIG. 4). After centrifugation at 1000 g for 5 minutes, the supernatant was removed by suction. Thereafter, 2 ml of ammonium chloride hemolytic agent (distilled water containing 8.99 mg/ml of NH4Cl, 1 mg/ml of KHCO3, and 37 μg/ml of EDTA4Na) was added to the cell pellets, followed by suspension. The resulting product was then allowed to stand at room temperature for 2 minutes. Subsequently, 10 ml of RPMI 1640 medium with 10% FBS was added thereto, the mixture was centrifuged at 1000 g for 5 minutes, and the supernatant was removed by suction. Then, 5 ml of RPMI 1640 medium with 10% FBS was added thereto to prepare a cell suspension (spleen-derived mononuclear cells).
After placing 1×10^6 spleen-derived mononuclear cells of Example 4 into a 1.5-ml Eppendorf tube, centrifugation was performed at 900 g for 5 minutes. Then, the supernatant was removed by suction, and 50 μl of FACS buffer (PBS(−) in which 0.5% BSA, 0.01% NaNO, and 1 mM EDTA were dissolved) was added thereto. Thereafter, incubation was performed on ice for 20 minutes with an FITC-labeled mouse anti-CD27 antibody (NOVUS; NPB-1-44021) and a PE-labeled mouse anti-CD62L antibody (ABGENT; ATB10190). […]

[3] = system: Menin gene and Bach2 gene mRNA; conditions: 0.2 mg/ml in water, free intake, Day 495; compared to control group or L-proline group
Protocol: as §2
Total RNA was extracted from 1×10^5 spleen-derived mononuclear cells of Example 4 using an RNeasy Mini Kit, produced by Qiagen. […] The mRNA levels of the Menin gene and the Bach2 gene were quantified as a ratio relative to the β-actin gene mRNA level, and calculated taking the value of the spleen-derived mononuclear cells of the control group as 1.

[4] = mixed with feed at 60, 200 or 400 μg/ml

Structure (SMILES)	life span of aging-promoting adult Drosophila flies ([1]; mixed with feed at 400 μg/ml)	life span of aging-promoting adult Drosophila flies [1, 4]	number of T cells with a senescence marker of CD62-negative or CD27-negative [2]	mRNA expression of the Bach2 gene (ratio to β-actin, control = 1) [3]	mRNA expression of the Menin gene (ratio to β-actin, control = 1) [3]	life span of aging-promoting adult Drosophila flies ([1]; mixed with feed at 20, 60, 200 or 400 μg/ml)
N[C@H](CC(=O)O)C(=O)O [D-aspartic acid]	extends the life span	extended the life span of Drosophila flies in a concentration-dependent manner	–	–	–	–
O=C(O)[C@H]1C[C@H](O)CN1 [D-hydroxyproline]	extends the life span	extended the life span of Drosophila flies in a concentration-dependent manner	–	–	–	–
O=C(O)[C@H]1CCCN1 [D-proline]	significantly higher effect	–	significantly reduced number	higher mRNA expression	higher mRNA expression	dose-dependently extends the life span
O=C(O)[C@@H]1CCCN1 [L-proline, reference compound]	no effect	–	–	–	–	–
